#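 Interpolation was linear, between the two tested concentrations surrounding the appropriate level; five concentrations were tested over 48 hours in 96-well plates. GI50 = concentration required for 50% inhibition of growth. TGI: concentration producing complete growth inhibition.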
# Tests used:
# Test in all cases: NCI tumour cell line growth inhibition, 48 h
# SK-MEL-28 melanoma = tested on: SK-MEL-28 melanoma
# SK-MEL-5 melanoma = tested on: SK-MEL-5 melanoma
# PC-3 prostate = tested on: PC-3 prostate
# NCI/ADR-RES ovarian = tested on: NCI/ADR-RES ovarian
# SF-539 CNS = tested on: SF-539 CNS
# COLO 205 colon = tested on: COLO 205 colon
# UO-31 renal = tested on: UO-31 renal
# OVCAR-4 ovarian = tested on: OVCAR-4 ovarian
# HOP-62 NSCLC = tested on: HOP-62 NSCLC
# UACC-62 melanoma = tested on: UACC-62 melanoma
structure (smiles),measurement,setting,value
Cc1ccc(S(=O)(=O)N[C@@H](Cc2ccccc2)C(=O)CCl)cc1,TGI,SK-MEL-28 melanoma,53.7 µM
same,TGI,SK-MEL-5 melanoma,28.3 µM
same,GI50,PC-3 prostate,5.54 µM
same,TGI,PC-3 prostate,22.6 µM
same,GI50,NCI/ADR-RES ovarian,22.3 µM
same,TGI,NCI/ADR-RES ovarian,65.7 µM
same,GI50,SF-539 CNS,2.26 µM
same,TGI,SF-539 CNS,5.68 µM
same,GI50,COLO 205 colon,19.9 µM
same,TGI,COLO 205 colon,52.3 µM
same,GI50,UO-31 renal,16.3 µM
same,TGI,UO-31 renal,39 µM
same,GI50,OVCAR-4 ovarian,16.6 µM
same,TGI,OVCAR-4 ovarian,42.6 µM
same,TGI,HOP-62 NSCLC,39.8 µM
CCOc1ccc(NC(=O)c2cc3ccccc3cc2O)cc1,GI50,UACC-62 melanoma,57.4 µM
same,TGI,UACC-62 melanoma,> 100 µM
same,GI50,SK-MEL-28 melanoma,> 100 µM
same,TGI,SK-MEL-28 melanoma,> 100 µM
same,GI50,SK-MEL-5 melanoma,> 100 µM
same,TGI,SK-MEL-5 melanoma,> 100 µM
same,GI50,PC-3 prostate,> 100 µM
same,TGI,PC-3 prostate,> 100 µM
same,GI50,NCI/ADR-RES ovarian,51.3 µM
same,TGI,NCI/ADR-RES ovarian,> 100 µM
same,GI50,SF-539 CNS,33.2 µM
same,TGI,SF-539 CNS,> 100 µM
same,GI50,COLO 205 colon,> 100 µM
same,TGI,COLO 205 colon,> 100 µM
same,GI50,UO-31 renal,49.3 µM
same,TGI,UO-31 renal,> 100 µM
same,GI50,OVCAR-4 ovarian,> 100 µM
same,TGI,OVCAR-4 ovarian,> 100 µM
same,GI50,HOP-62 NSCLC,27.7 µM
same,TGI,HOP-62 NSCLC,81.5 µM
O=C(O)c1nnsc1-c1csnn1,TGI,UACC-62 melanoma,> 100 µM
same,TGI,SK-MEL-28 melanoma,> 100 µM
same,TGI,SK-MEL-5 melanoma,> 100 µM
same,TGI,PC-3 prostate,> 100 µM
same,TGI,NCI/ADR-RES ovarian,> 100 µM
same,TGI,SF-539 CNS,> 100 µM
same,TGI,COLO 205 colon,> 100 µM
same,TGI,UO-31 renal,> 100 µM
same,TGI,OVCAR-4 ovarian,> 100 µM
same,TGI,HOP-62 NSCLC,> 100 µM
N=C1N=C(N)S/C1=C\c1ccc2ncccc2c1,GI50,UACC-62 melanoma,> 25 µM
same,TGI,UACC-62 melanoma,> 25 µM
same,GI50,SK-MEL-28 melanoma,> 25 µM
same,TGI,SK-MEL-28 melanoma,> 25 µM
same,GI50,SK-MEL-5 melanoma,> 25 µM
same,TGI,SK-MEL-5 melanoma,> 25 µM
same,GI50,PC-3 prostate,> 25 µM
same,TGI,PC-3 prostate,> 25 µM
same,GI50,NCI/ADR-RES ovarian,> 25 µM
same,TGI,NCI/ADR-RES ovarian,> 25 µM
same,GI50,SF-539 CNS,> 25 µM
same,TGI,SF-539 CNS,> 25 µM
same,GI50,COLO 205 colon,> 25 µM
same,TGI,COLO 205 colon,> 25 µM
same,GI50,UO-31 renal,> 25 µM
same,TGI,UO-31 renal,> 25 µM
same,GI50,OVCAR-4 ovarian,> 25 µM
same,TGI,OVCAR-4 ovarian,> 25 µM
same,GI50,HOP-62 NSCLC,> 25 µM
same,TGI,HOP-62 NSCLC,> 25 µM
CCOc1ccc2c(c1)C(=O)c1c-2n(CCCN)c(=O)c2cc([N+](=O)[O-])ccc12,GI50,UACC-62 melanoma,0.0768 µM
same,TGI,UACC-62 melanoma,1.82 µM
same,GI50,SK-MEL-28 melanoma,1.37 µM
same,TGI,SK-MEL-28 melanoma,2.89 µM
same,GI50,SK-MEL-5 melanoma,0.0771 µM
same,TGI,SK-MEL-5 melanoma,0.417 µM
same,GI50,PC-3 prostate,0.297 µM
same,TGI,PC-3 prostate,2.14 µM
same,GI50,NCI/ADR-RES ovarian,0.0558 µM
same,TGI,NCI/ADR-RES ovarian,1.82 µM
same,GI50,SF-539 CNS,0.0517 µM
same,TGI,SF-539 CNS,0.209 µM
same,GI50,COLO 205 colon,0.361 µM
same,TGI,COLO 205 colon,2.11 µM
same,GI50,UO-31 renal,< 0.01 µM
same,TGI,UO-31 renal,0.205 µM
same,GI50,OVCAR-4 ovarian,0.527 µM
same,TGI,OVCAR-4 ovarian,2.18 µM
same,GI50,HOP-62 NSCLC,< 0.0108 µM
same,TGI,HOP-62 NSCLC,1.22 µM
OCC#CCCCCOCC#Cc1ccccc1C#CCOCCCCC#CCO,GI50,UACC-62 melanoma,18.4 µM
same,TGI,UACC-62 melanoma,34.3 µM
same,GI50,SK-MEL-28 melanoma,20.1 µM
same,TGI,SK-MEL-28 melanoma,51.6 µM
same,GI50,SK-MEL-5 melanoma,15.1 µM
same,TGI,SK-MEL-5 melanoma,30.5 µM
same,GI50,PC-3 prostate,40.6 µM
same,TGI,PC-3 prostate,98.4 µM
same,GI50,NCI/ADR-RES ovarian,23.6 µM
same,TGI,NCI/ADR-RES ovarian,57.9 µM
same,GI50,SF-539 CNS,17.6 µM
same,TGI,SF-539 CNS,33.2 µM
same,GI50,COLO 205 colon,27.1 µM
same,TGI,COLO 205 colon,> 100 µM
same,GI50,UO-31 renal,55.5 µM
same,TGI,UO-31 renal,> 100 µM
same,GI50,OVCAR-4 ovarian,14.8 µM
same,TGI,OVCAR-4 ovarian,53.9 µM
CC(=O)N1N=C(c2ccc(Nc3nc(Nc4ccc(F)cc4)nc(Nc4ccc(Cl)cc4)n3)cc2)CC1c1ccc(N(C)C)cc1 (stereo unspecified),GI50,UACC-62 melanoma,2.26 µM
same,TGI,UACC-62 melanoma,7.79 µM
same,GI50,SK-MEL-28 melanoma,11.7 µM
same,TGI,SK-MEL-28 melanoma,40.1 µM
same,GI50,SK-MEL-5 melanoma,6.68 µM
same,TGI,SK-MEL-5 melanoma,19.3 µM
same,GI50,PC-3 prostate,3.18 µM
same,TGI,PC-3 prostate,> 64.8 µM
same,GI50,NCI/ADR-RES ovarian,1.65 µM
same,TGI,NCI/ADR-RES ovarian,15.7 µM
same,GI50,SF-539 CNS,15.8 µM
same,TGI,SF-539 CNS,> 63.9 µM
same,GI50,COLO 205 colon,1.81 µM
same,TGI,COLO 205 colon,5.9 µM
same,GI50,UO-31 renal,3.11 µM
same,TGI,UO-31 renal,16.6 µM
same,GI50,OVCAR-4 ovarian,4.41 µM
same,TGI,OVCAR-4 ovarian,> 100 µM
same,GI50,HOP-62 NSCLC,3.25 µM
same,TGI,HOP-62 NSCLC,13.2 µM
C[C@@H]1CC[C@@H]2[C@@H]1[C@H](OC(=O)c1ccc3ccccc3c1)[C@]1(C3CCCCC3)C[C@@H](OC(=O)CO)[C@@]2(C)O1,GI50,UACC-62 melanoma,14.3 µM
same,TGI,UACC-62 melanoma,28.5 µM
same,GI50,SK-MEL-28 melanoma,13.9 µM
same,TGI,SK-MEL-28 melanoma,28.5 µM
same,GI50,SK-MEL-5 melanoma,14 µM
same,TGI,SK-MEL-5 melanoma,27.4 µM
same,GI50,PC-3 prostate,4.2 µM
same,TGI,PC-3 prostate,19.2 µM
same,GI50,NCI/ADR-RES ovarian,0.543 µM
same,TGI,NCI/ADR-RES ovarian,19.4 µM
same,GI50,SF-539 CNS,13.7 µM
same,TGI,SF-539 CNS,27.9 µM
same,GI50,COLO 205 colon,11.2 µM
same,TGI,COLO 205 colon,24.6 µM
same,GI50,OVCAR-4 ovarian,10.8 µM
same,TGI,OVCAR-4 ovarian,24.8 µM
same,GI50,HOP-62 NSCLC,12.8 µM
same,TGI,HOP-62 NSCLC,25.6 µM
CCCCCCCC(=O)NS(=O)(=O)c1ccccc1,TGI,UACC-62 melanoma,> 100 µM
same,TGI,SK-MEL-28 melanoma,> 100 µM
same,TGI,SK-MEL-5 melanoma,> 100 µM
same,TGI,PC-3 prostate,> 100 µM
same,TGI,NCI/ADR-RES ovarian,> 100 µM
same,TGI,SF-539 CNS,> 100 µM
same,TGI,COLO 205 colon,> 100 µM
same,TGI,UO-31 renal,> 100 µM
same,TGI,OVCAR-4 ovarian,> 100 µM
same,TGI,HOP-62 NSCLC,> 100 µM
CCOC(=O)C(O)Cc1cnc2ccccc2n1 (stereo unspecified),TGI,UACC-62 melanoma,> 100 µM
same,TGI,SK-MEL-28 melanoma,> 100 µM
same,TGI,SK-MEL-5 melanoma,> 100 µM
same,TGI,PC-3 prostate,> 100 µM
same,TGI,NCI/ADR-RES ovarian,> 100 µM
same,TGI,SF-539 CNS,> 100 µM
same,TGI,COLO 205 colon,> 100 µM
same,TGI,UO-31 renal,> 100 µM
same,TGI,OVCAR-4 ovarian,> 100 µM
same,TGI,HOP-62 NSCLC,> 100 µM
COc1ccc(C2SCC(=O)N2NC(=O)C(O)c2ccccc2)cc1 (stereo unspecified),GI50,UACC-62 melanoma,> 100 µM
same,TGI,UACC-62 melanoma,> 100 µM
same,GI50,SK-MEL-28 melanoma,> 100 µM
same,TGI,SK-MEL-28 melanoma,> 100 µM
same,GI50,SK-MEL-5 melanoma,> 100 µM
same,TGI,SK-MEL-5 melanoma,> 100 µM
same,GI50,PC-3 prostate,> 100 µM
same,TGI,PC-3 prostate,> 100 µM
same,GI50,NCI/ADR-RES ovarian,> 100 µM
same,TGI,NCI/ADR-RES ovarian,> 100 µM
same,GI50,SF-539 CNS,> 100 µM
same,TGI,SF-539 CNS,> 100 µM
same,GI50,COLO 205 colon,> 100 µM
same,TGI,COLO 205 colon,> 100 µM
same,GI50,UO-31 renal,> 100 µM
same,TGI,UO-31 renal,> 100 µM
same,GI50,OVCAR-4 ovarian,> 100 µM
same,TGI,OVCAR-4 ovarian,> 100 µM
same,GI50,HOP-62 NSCLC,> 100 µM
same,TGI,HOP-62 NSCLC,> 100 µM
O=C(Nc1nc(-c2ccccc2)cs1)c1cc(O)c(O)c(O)c1,GI50,UACC-62 melanoma,3.02 µM
same,TGI,UACC-62 melanoma,16.5 µM
same,GI50,SK-MEL-28 melanoma,7.18 µM
same,TGI,SK-MEL-28 melanoma,60.8 µM
same,GI50,SK-MEL-5 melanoma,3.6 µM
same,TGI,SK-MEL-5 melanoma,20.7 µM
same,GI50,NCI/ADR-RES ovarian,3.7 µM
same,TGI,NCI/ADR-RES ovarian,> 100 µM
same,GI50,SF-539 CNS,2.77 µM
same,TGI,SF-539 CNS,11.9 µM
same,GI50,COLO 205 colon,10.8 µM
same,TGI,COLO 205 colon,30.1 µM
same,GI50,UO-31 renal,0.605 µM
same,TGI,UO-31 renal,19.4 µM
same,GI50,OVCAR-4 ovarian,2.22 µM
same,TGI,OVCAR-4 ovarian,57.3 µM
same,GI50,HOP-62 NSCLC,5.73 µM
same,TGI,HOP-62 NSCLC,30.6 µM
Cc1cc(S(=O)(=O)Nc2nc3ccccc3[nH]2)c(SCc2ccccc2)cc1Cl,GI50,UACC-62 melanoma,> 100 µM
same,TGI,UACC-62 melanoma,> 100 µM
same,GI50,SK-MEL-28 melanoma,> 100 µM
same,TGI,SK-MEL-28 melanoma,> 100 µM
same,GI50,SK-MEL-5 melanoma,> 100 µM
same,TGI,SK-MEL-5 melanoma,> 100 µM
same,GI50,PC-3 prostate,> 100 µM
same,TGI,PC-3 prostate,> 100 µM
same,GI50,NCI/ADR-RES ovarian,> 100 µM
same,TGI,NCI/ADR-RES ovarian,> 100 µM
same,GI50,SF-539 CNS,19.8 µM
same,TGI,SF-539 CNS,52.8 µM
same,GI50,COLO 205 colon,> 100 µM
same,TGI,COLO 205 colon,> 100 µM
same,GI50,UO-31 renal,> 100 µM
same,TGI,UO-31 renal,> 100 µM
same,GI50,HOP-62 NSCLC,22.7 µM
same,TGI,HOP-62 NSCLC,> 100 µM
Nc1cc(N)cc(Cc2ccccc2)c1,TGI,SK-MEL-28 melanoma,> 100 µM
same,TGI,SK-MEL-5 melanoma,> 100 µM
same,TGI,PC-3 prostate,> 100 µM
same,TGI,NCI/ADR-RES ovarian,> 100 µM
same,TGI,SF-539 CNS,> 100 µM
same,TGI,COLO 205 colon,> 100 µM
same,TGI,UO-31 renal,> 100 µM
same,TGI,OVCAR-4 ovarian,> 100 µM
same,TGI,HOP-62 NSCLC,> 100 µM
